In article PMC7607426, “Vicinal difluorination as a C=C surrogate: an analog of piperine with enhanced solubility, photostability, and acetylcholinesterase inhibitory activity” (Beilstein Journal of Organic Chemistry, 2020):

Target: acetylcholinesterase (AChE) (Electrophorus electricus, UniProt O42275)
Experiment: colorimetric AChE inhibition assay
Type: biochemical

acetylcholinesterase (AChE), sequence (O42275 24-633): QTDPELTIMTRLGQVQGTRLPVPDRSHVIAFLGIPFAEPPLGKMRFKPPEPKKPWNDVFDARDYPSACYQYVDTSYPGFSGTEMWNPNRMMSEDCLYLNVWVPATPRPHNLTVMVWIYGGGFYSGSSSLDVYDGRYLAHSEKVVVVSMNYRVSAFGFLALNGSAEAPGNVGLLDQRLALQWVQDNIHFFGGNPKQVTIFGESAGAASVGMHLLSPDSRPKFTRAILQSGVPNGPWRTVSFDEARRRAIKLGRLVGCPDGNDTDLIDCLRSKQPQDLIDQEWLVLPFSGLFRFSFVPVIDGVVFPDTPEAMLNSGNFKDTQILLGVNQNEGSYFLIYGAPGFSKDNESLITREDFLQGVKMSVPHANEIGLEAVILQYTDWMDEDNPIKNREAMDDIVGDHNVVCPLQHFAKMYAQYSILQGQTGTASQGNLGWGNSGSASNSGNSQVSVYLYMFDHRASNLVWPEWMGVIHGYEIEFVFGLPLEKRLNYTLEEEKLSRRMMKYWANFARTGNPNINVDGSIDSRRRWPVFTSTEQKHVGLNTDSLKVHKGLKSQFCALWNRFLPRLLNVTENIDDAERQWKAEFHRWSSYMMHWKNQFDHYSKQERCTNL

Compound `O=C([C@@H](F)[C@H](F)CCc1ccc2c(c1)OCO2)N1CCCCC1` [compound 2, analog 2] has an IC50 of 51.7 µM.
